Test results taken from patent US9914910B2, “Methods of preserving and protecting pancreatic beta cells and treating or preventing diabetes by inhibiting NOX-1” (Eastern Virginia Medical School, priority 2013, dated 2018).

Legend:
INS-1 cells = assay: Glucose-stimulated insulin secretion (GSIS) after PIC; type: cell-based, rat; conditions: INS-1, 1 mM vs 16 mM glucose, p<0.05
Description: Treated islets or cells then were washed with PBS and placed in 1 mL serum-free Kreb-Ringer buffer (115 mM NaCl, 24 mM NaHCO3, 5 mM KCl, 1 mM MgCl2, and 25 mM HEPES) for 1 hour at 370 C. Low (1 mM) or high (16 mM) glucose was added for […] for 30 min. Insulin levels in media were measured by ELISA (Mercodia, Winston Salem, N.C.) as per the manufacturer's instructions.
FIG. 4: Treatment of homogeneous rat beta cell line (INS-1) with pro-inflammatory cytokines (PIC) (TNFα, IL-1β, IFNγ) disrupts beta cell function measured by glucose-stimulated-insulin-secretion. Control (non cytokine-treated) cells respond to glucose elevation ([…]) by increasing insulin secretion. Insulin levels are plotted. In the presence of inflammatory cytokines (PIC) this response is lost and the dysfunctional cells ‘leak’ insulin. […] (*p<0.05, **p<0.01).

primary mouse islets = assay: Apoptosis by YO-PRO-1 fluorescence microscopy after PIC; type: cell-based
Description: Human donor islets were obtained from integrated islet distribution project (http://iidp.coh.org) and cultured in CMRL media (Mediatech, Manassas, Va.). Mouse islets were freshly isolated from 8-week old male C57BL/6J mice (Jackson Laboratory, Bar Harbor, Me.) by common bile duct cannulation and collagenase digestion. Islets were hand picked prior to use.
B. Fluorescence microscopy: Stimulated cells or islets were washed in cold PBS, and incubated for 30 mins at 40 C with cold PBS containing 1 μg/mL propidium iodide and 0.1 μM YO-PRO-1 (Life Technologies). For cell lines, five randomly fields per well were analyzed. For islets, all islets (>1000 um2 in size) were analyzed. Densitometric fluorescent value for YO-PRO-1 (green channel) was normalized to background and expressed proportional to cell occupied area (phase contrast). Images captured across three channels with Axiophot (Zeiss, Jena, Germany) with Axiovision (Zeiss) image analysis.
FIG. 1: Treatment of primary mouse islets with inflammatory cytokines (TNFα, IL-1β, IFNγ) induces islet/beta cell death (apoptosis) which can be measured in a fluorescent-based assay (green signal) using YO-PRO-1. […] The degree of cell death can be quantified by measuring the green signal. The graph is a quantitative analysis of multiple (≧4 visual fields in replicate wells). The detected relative fluorescent units (RFU) are plotted. […]

Which “glucose-stimulated insulin secretion with PIC” value (INS-1 cells) does the source give for `CC(=O)c1ccc2c(c1)Nc1ccccc1S2` [ML171, 2-acetylphenothiazine] here?
The value was “restoring the glucose-sensitive insulin response”.

What about the “cytokine induced cell death (YO-PRO-1 RFU)” value (primary mouse islets; 1 μM, p<0.05) of the same compound?
The value was “protected islets from cytokine induced cell death”.

And the “reduction of PIC induced islet apoptosis” value (primary mouse islets; 10 μM, 24 hours)?
The value was 86%±4%.
